IC50 data for 55 compounds are collected here from patent US20140315886A1, “QUINAZOLINES AS THERAPEUTIC COMPOUNDS AND RELATED METHODS OF USE” (OTSUKA PHARMACEUTICAL CO., LTD., priority 2011, published 2014).

Molecules are shown by their SMILES. Some results are limits rather than exact numbers.

In the test the target is T1, purified STEP46 enzyme (Homo sapiens, UniProt P54829).
T1 sequence (P54829 197-565 limits assumed): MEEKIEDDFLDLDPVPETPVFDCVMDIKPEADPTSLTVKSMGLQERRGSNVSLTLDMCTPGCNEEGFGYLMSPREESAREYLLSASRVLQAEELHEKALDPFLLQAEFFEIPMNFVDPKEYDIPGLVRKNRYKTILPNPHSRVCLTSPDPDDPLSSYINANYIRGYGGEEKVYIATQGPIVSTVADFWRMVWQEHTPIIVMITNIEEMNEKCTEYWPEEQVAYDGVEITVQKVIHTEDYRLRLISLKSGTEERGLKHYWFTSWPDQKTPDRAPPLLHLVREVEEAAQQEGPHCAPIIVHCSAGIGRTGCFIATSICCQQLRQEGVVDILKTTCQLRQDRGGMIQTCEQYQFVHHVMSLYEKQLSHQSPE
Put plainly: STEP46 biochemical assay (DiFMUP fluorescence phosphatase assay). The following applies: DiFMUP 10 μM, read-out: STEP IC50. A digest of the protocol:
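Purified human STEP46 preincubated 30 min at room temperature with compounds in Hepes/DTT/Brij35 buffer (2% DMSO final), then reacted with 10 μM DiFMUP for 90 min at 27°C; fluorescence read at 360/460 nm. IC50 from four-parameter fit; activation shown as negative % inhibition at 25, 50, 100 uM.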
Take `Fc1cccc(-c2ccc3c(N4CCc5cc(Cl)ccc54)nc(-c4cccnc4)nc3c2)c1F` [Compound 108]: the IC50 was in the range of 1000 to 10000 nM.
With `CNc1nc(-c2cccnc2)nc2cc(-c3ccc(C)o3)ccc12` [Compound 273] the figure was 1000 to 10000 nM; with `Cc1ccc2c(c1)CCN2c1nc(-c2cccnc2)nc2cc(-c3cc(F)ccc3F)ccc12` [Compound 98], 1000 to 10000 nM.
In the case of `CNc1nc(-c2cccnc2)nc2c(F)c(-c3ccc(F)c(F)c3F)ccc12` [Compound 521], the IC50 was 1000 to 10000 nM.
With `CNc1nc(-c2cccnc2)nc2ccc(-c3ccc4c(c3)oc(=O)n4C)cc12` [Compound 470] the figure was less than 1000 nM.
Regarding `CNc1nc(-c2cccnc2)nc2cc(C)c(-c3ccc(F)c(F)c3F)cc12` [Compound 301], the half-maximal inhibitory concentration (IC50) lay in the range of 1000 to 10000 nM.
The value for `Cc1c(-c2cccc(F)c2)ccc2c(N3CCc4cc(Cl)ccc43)nc(-c3cccnc3)nc12` [Compound 117] was greater than 10000 nM; that for `CNc1nc(-c2cccnc2)nc2ccc(-c3ccc4c(c3)NC(=O)CO4)cc12` [Compound 469] was less than 1000 nM; that for `O=[N+]([O-])c1cccc(-c2ccc3nc(-c4cccnc4)nc(N4CCc5cc(Cl)ccc54)c3c2)c1` [Compound 82] was 1000 to 10000 nM.
Take `O=[N+]([O-])c1ccc2c(c1)CCN2c1nc(-c2cccnc2)nc2ccc(-c3ccc(F)cc3)cc12` [Compound 87]: the 50% inhibitory concentration (IC50) was less than 1000 nM.
For the compound `O=[N+]([O-])c1ccc2c(c1)CCN2c1nc(-c2cccnc2)nc2ccc(-c3cccc(F)c3F)cc12` [Compound 83], the IC50 was less than 1000 nM.
Consider `Clc1cncc(Nc2nc(-c3cccnc3)nc3ccc(Cl)cc23)c1` [Compound 70], for which the half-maximal inhibitory concentration (IC50) is less than 1000 nM.
Take `Fc1ccc(-c2ccc3nc(-c4ccnnc4)nc(NCc4ccccn4)c3c2)c(F)c1` [Compound 329]: the IC50 was in the range of 1000 to 10000 nM.
On to `COc1ccc(-c2ccc3nc(-c4cccnc4)nc(NCc4ccccn4)c3c2)cc1` [Compound 344], for which the concentration for half-maximal inhibition (IC50) was 1000 to 10000 nM.
In the case of `Fc1ccc(-c2ccc3nc(-c4cccnc4)nc(Nc4ccccn4)c3c2)cc1` [Compound 437], the IC50 was 1000 to 10000 nM.
In the case of `CNc1nc(-c2cccnc2)nc2cc(F)c(-c3ccc(C#N)cc3)cc12` [Compound 592], the IC50 was in the range of 1000 to 10000 nM.
The value for `Cc1cncc(Nc2nc(-c3cccnc3)nc3ccc(Cl)cc23)c1` [Compound 66] was 1000 to 10000 nM; that for `CNc1nc(-c2cccnc2)nc2ccc(-c3cc(Cl)ccc3F)cc12` [Compound 240] was 1000 to 10000 nM.
With `CNc1nc(-c2cccnc2)nc2cc(C(F)(F)F)c(-c3ccc(F)cc3F)cc12` [Compound 198], the IC50 is greater than 10000 nM.
For the compound `CNc1nc(-c2cccnc2)nc2c(F)c(-c3cc(F)cc(F)c3)ccc12` [Compound 516], the IC50 is less than 1000 nM.
As for `CC(Nc1nc(-c2cccnc2)nc2ccc(-c3cc(F)cc(F)c3)cc12)c1ccccc1` (stereo not shown) [Compound 349], the IC50 was 1000 to 10000 nM.
The value for `CNc1nc(-c2cccnc2)nc2cc(F)c(-c3cc(F)cc(F)c3)cc12` [Compound 588] was 1000 to 10000 nM; that for `Fc1ccc(-c2ccc3c(NCCc4ccccn4)nc(-c4cccnc4)nc3c2)cc1` [Compound 340] was 1000 to 10000 nM; that for `CNc1nc(-c2cccnc2)nc2c(OC)cc(-c3ccccc3OC)cc12` [Compound 207] was 1000 to 10000 nM.
With `CNc1nc(-c2cccnc2)nc2ccc(-c3ccc(C(F)(F)F)cc3C(F)(F)F)cc12` [Compound 202] the figure was greater than 10000 nM; with `CNc1nc(-c2cccnc2)nc2c(F)cc(-c3ccccc3OC)cc12` [Compound 566], greater than 10000 nM; with `Fc1ccc(-c2ccc3c(N4CCc5ccccc54)nc(-c4cccnc4)nc3c2)c(F)c1` [Compound 103], 1000 to 10000 nM.
`CNc1nc(-c2cccnc2)nc2ccc(-c3ccc(C)cc3F)cc12` [Compound 239]: the 50% inhibitory concentration (IC50) lay within 1000 to 10000 nM.
Regarding `CNC(=O)COc1cc(F)cc(-c2ccc3c(NC)nc(-c4cccnc4)nc3c2)c1` [Compound 142], the IC50 was 1000 to 10000 nM.
As to `Cc1ccc2c(c1)CCN2c1nc(-c2cccnc2)nc2cc(Br)ccc12` [Compound 16], the IC50 lay in the range of 1000 to 10000 nM.
With `Cc1c(-c2cc(F)c(F)c(F)c2)ccc2c(N(C)C)nc(-c3cccnc3)nc12` [Compound 292] the figure was 1000 to 10000 nM; with `CC(Nc1nc(-c2cccnc2)nc2cc(-c3ccc(F)c(F)c3)ccc12)c1ccccn1` (stereo not shown) [Compound 369], 1000 to 10000 nM; with `COc1ccc2c(c1)CCN2c1nc(-c2cccnc2)nc2ccc(-c3ccc(F)cc3)cc12` [Compound 90], less than 1000 nM.
In the case of `CNc1nc(-c2cccnc2)nc2ccc(-c3cc(F)nc(F)c3)cc12` [Compound 283], the IC50 was 1000 to 10000 nM.
For the compound `Cc1ccc2c(c1)N(c1nc(-c3cccnc3)nc3ccc(Br)cc13)CC2` [Compound 20], the concentration for half-maximal inhibition (IC50) fell in the range of 1000 to 10000 nM.
Turning to `CNc1nc(-c2cccnc2)nc2ccc(-c3ccc(CO)cc3)cc12` [Compound 173], the half-maximal inhibitory concentration (IC50) is 1000 to 10000 nM.
With `CNc1nc(-c2cccnc2)nc2ccc(-c3cccc(-c4nccs4)c3)cc12` [Compound 473] the figure was less than 1000 nM.
On to `CNc1nc(-c2cccnc2)nc2ccc(-c3c(F)cccc3Cl)cc12` [Compound 241], for which the 50% inhibitory concentration (IC50) lay in the range of 1000 to 10000 nM.
With `CNc1nc(-c2cccnc2)nc2c(F)c(-c3ccc(F)c(F)c3)ccc12` [Compound 517] the figure was 1000 to 10000 nM; with `CNc1nc(-c2cccnc2)nc2c(F)c(-c3ccc(OC)c(F)c3)ccc12` [Compound 544], less than 1000 nM; with `CNc1nc(-c2cccnc2)nc2c(F)c(-c3cc(F)cc(F)c3F)ccc12` [Compound 523], less than 1000 nM.
The value for `Fc1ccc(-c2ccc3c(N4CCc5cc(Cl)ccc54)nc(-c4cccnc4)nc3c2)cc1` [Compound 97] was 1000 to 10000 nM.
`CNc1nc(-c2cccnc2)nc2ccc(-c3c(F)cc(F)cc3F)cc12` [Compound 457]: the IC50 fell in the range of 1000 to 10000 nM.
The value for `CNc1nc(-c2cccnc2)nc2c(F)c(-c3ccc(C(F)(F)F)cc3)ccc12` [Compound 528] was 1000 to 10000 nM; that for `CNc1nc(-c2cccnc2)nc2ccc(-c3cc(C)oc3C)cc12` [Compound 285] was 1000 to 10000 nM; that for `CNc1nc(-c2cccnc2)nc2c(-c3cccc(F)c3)cccc12` [Compound 274] was 1000 to 10000 nM.
As for `CNc1nc(-c2cccnc2)nc2cc(-c3ccsc3)ccc12` [Compound 320], the IC50 was in the range of 1000 to 10000 nM.
`Fc1cncc(Nc2nc(-c3cccnc3)nc3cc(Cl)ccc23)c1` [Compound 50]: the half-inhibitory concentration (IC50) fell in the range of 1000 to 10000 nM.
As to `CNc1nc(-c2cccnc2)nc2ccc(-c3ccc4c(c3)OCCCO4)cc12` [Compound 170], the IC50 is greater than 10000 nM.
The value for `Fc1ccc(-c2ccc3nc(-c4cccnc4)nc(N4CCc5cc(F)ccc54)c3c2)cc1` [Compound 91] was 1000 to 10000 nM; that for `CNc1nc(-c2cccnc2)nc2cc(-c3ccoc3C)ccc12` [Compound 275] was greater than 10000 nM.
In the case of `Fc1ccc(-c2ccc3nc(-c4cccnc4)nc(Nc4cccc(F)n4)c3c2)cc1` [Compound 439], the IC50 lay within 1000 to 10000 nM.
`CNc1nc(-c2cccnc2)nc2cc(OC(F)(F)F)c(-c3cccc(F)c3)cc12` [Compound 209]: the IC50 lay within 1000 to 10000 nM.
Consider `COc1ccc2c(c1)CCN2c1nc(-c2cccnc2)nc2ccc(Br)cc12` [Compound 21], for which the half-inhibitory concentration (IC50) was greater than 10000 nM.
For `CNc1nc(-c2cncnc2)nc2ccc(-c3cccc(F)c3)cc12` [Compound 210], the concentration for half-maximal inhibition (IC50) lay within 1000 to 10000 nM.

In general, IC50 refers to the concentration that gives 50% inhibition.
